# Laboratory results reported in patent US8980844B2, “Peptide having antibacterial or anti-inflammatory activity and pharmaceutical composition containing the same as an active ingredient” (Nano Intelligent Biomedical Engineering Corporation Co. Ltd., priority 2010, dated 2015).
# Structures can show the parent of a compound that is named as a salt. No end group written: not given here.
# B1: rhHB-EGF: recombinant human HB-EGF, comparator growth factor (protein, UniProt Q99075 63-148, looked up)
# Heparin-binding EGF-like …: DLQEADLDLLRVTLSSKPQALATPNKEEHGKRKKKGKGLGKKRDPCLRKYKDFCIHGECKYVKELRAPSCICHPGYHGERCHGLSL
# Key:
# Format in all cases: cell-based
# [1] = test system: NF-κB expression in RAW 264.7 cells; test: Western blot analysis of NF-κB; conditions: 1 hour pretreatment, LPS 10 ng/ml, 8 hours, FIG. 3
# Procedure: In order to examine association with signals, the expression of the allergic inflammation-associated enzyme NF-κB associated with the NF-κB signal was measured.
# (§1) RAW 264.7 cells obtained from ATCC (American Type Culture Collection) were incubated in a CO2 incubator (supplied with 5% CO2 and 95% air) with DMEM (Dulbecco's modified Eagle medium) medium containing 10% FBS and 100 units/ml of antibiotics (penicillin and streptomycin) at 37° C.
# The incubated RAW 264.7 cells were treated with each of the peptides having the amino acid sequences of SEQ ID NOS: 1 to 4 for 1 hour, and then treated with LPS (10 ng/ml). After 8 hours, a protein of each of the cytosol and the nucleus was collected and compared with the changes in expression of NF-κB caused by hBD3, rhPDGF-BB and rhHB-EGF. The collected protein was identified by SDS-PAGE and transferred to a nitrocellulose membrane using a blotting kit. The membrane was blotted with the primary antibody NF-κB and exposed to HRP (horseradish peroxidase)-conjugated secondary antibody. Then, the membrane was allowed to react with an ECL western blot detection reagent and exposed to an X-ray film to detect a signal, thereby measuring the expression of the inflammation-associated enzyme NF-κB.
# [2] = test system: iNOS expression in RAW 264.7 cells; test: Western blot analysis of iNOS; conditions: 1 hour pretreatment, LPS 10 ng/ml, 8 hours, FIG. 4
# Procedure: as §1
# (§2) The incubated RAW 264.7 cells were treated with each of the peptides having the amino acid sequences of SEQ ID NOS: 1 to 4 for 1 hour, and then treated with LPS (10 ng/ml). After 8 hours, a protein of each of the cytosol and the nucleus was collected and compared with the changes in expressions of iNOS and COX-2 caused by hBD3, rhPDGF-BB and rhHB-EGF. The collected protein was identified by SDS-PAGE and transferred to a nitrocellulose membrane using a blotting kit. The membrane was blotted with each of the primary antibodies iNOS and COX-2 and exposed to HRP (horseradish peroxidase)-conjugated secondary antibody. Then, the membrane was allowed to react with an ECL western blot detection reagent and exposed to an X-ray film to detect signals, thereby measuring the expressions of the inflammation-associated enzymes iNOS and COX-2.
# [3] = test system: COX-2 expression in RAW 264.7 cells; test: Western blot analysis of COX-2; conditions: 1 hour pretreatment, LPS 10 ng/ml, 8 hours, FIG. 4
# Procedure: as §1, §2
# [4] = test system: Prevotella intermedia, Actinomyces israelii, Fusobacterium nucleatum, Staphylococcus aureus subsp aureus, Streptococcus pyogenes, Staphylococcus epidermidis; test: Antibacterial activity by liquid dilution method (colony count); conditions: liquid dilution method, 1, 10 and 100 μg/ml, 37° C. for 1 hour, number of colonies counted; FIG. 1
# Procedure: In order to evaluate the antibacterial effects of the peptides having the amino acid sequences of SEQ ID NOS: 1 to 4, measurement of the antibacterial activities of the peptides was carried out using a liquid dilution method. Periodontal pathogens, including Prevotella intermedia, Actinomyces israelii, and Fusobacterium nucleatum, were cultured in tryptic soy broth. Staphylococcus aureus subsp aureus and Streptococcus pyogenes were curtured in trypticase soy broth, and Staphylococcus epidermidis was curtured in nutrient liquid medium. After the above bacterial strains had been cultured until the absorbance at 620 nm reached 1, the cells were collected and used in the test. […]
# In order to measure the antibacterial activities of the peptides using the liquid dilution method, 1 ml of distilled water was placed in a fine tube, after which 10 μl of the diluted bacterial cell solution was placed in the tube, and then 50 μl of the solution was plated on plate medium and used as a control. Meanwhile, plate medium was treated with each of the antibacterial peptides at concentrations of 1 μg/ml, 10 μg/ml and 100 μg/ml at 37° C. for 1 hours, after which 50 μl of the bacterial cell solution was plated on the plate medium, and the number of colonies produced was counted. […]
# [5] = test system: Basophilic leukemia RBL-2H3 cells; test: Change in release of β-hexosaminidase (degranulation, anti-allergic effect); conditions: RBL-2H3 cells sensitised with anti-DNP IgE, challenged with DNP-HAS; concentration of 100 μM; FIG. 2
# Procedure: In order to examine the anti-allergic effects of the peptides having the amino acid sequences of SEQ ID NOS: 1 to 4, the changes in release of β-hexosaminidase by the peptides were measured.
# Basophilic leukemia RBL-2H3 cells obtained from ATCC (American Type Culture Collection) were cultured in a CO2 incubator (supplied with 5% CO2 and 95% air) with DMEM (Dulbecco's modified Eagle medium) medium containing 10% FBS (heat inactivated fetal bovine serum) and 100 units/ml of antibiotics (penicillin and streptomycin) at 37° C. for 24 hours. Specifically, the cells were cultured in a 96-well plate at a density of 5×10^4 cells/well, and then the supernatant was removed. […] Then, the absorbance at 405 nm was measured and the change in release of β-hexosaminidase was determined. The method of measuring the amount of β-hexosaminidase is known to be sensitive and accurate compared to a method of quantifying histamine, and thus has recently been frequently used in studies on degranulation. For comparison, In addition, the changes in release of β-hexosaminidase by KF and growth factors (hBD3, rhPDGF-BB and rhHB-EGF), which are used as agents for treating allergic diseases, were measured in the same manner as described above and compared with the changes caused by the peptides.
Molecule,LPS-induced expression of NF-κB [1],LPS-induced expression of iNOS [2],LPS-induced expression of COX-2 [3],antibacterial activity [4],release of β-hexosaminidase [5]
"CN1CCC(=C2c3ccccc3CC(=O)c3sccc32)CC1 [KF, ketotifen fumarate, reference compound]",smaller than the inhibitory effects of the peptides,smaller than the inhibitory effects of the peptides,smaller than the inhibitory effects of the peptides,–,–
"hBD3: human beta-defensin-3, comparator (GIINTLQKYYCRVRGGRCAVLSCLPKEEQIGKCSTRGRKCCRRKK; ends and bridges not checked; cysteine pairing not given here; UniProt P81534 23-67, looked up)",not greater than those of the peptides,no inhibitory effect,no inhibitory effect,lower than those of the peptides,did not influence the reduction in the release of β-hexosaminidase
B1,not greater than those of the peptides,no inhibitory effect,no inhibitory effect,lower than those of the peptides,did not influence the reduction in the release of β-hexosaminidase
